Measurements taken from US20060154896A1, “Phosphorylated dextrans” (priority 2002, published 2006).

How the values were obtained:
mouse spleen cells = assay: Blastogenic activity on mouse spleen cells ([3H]-thymidine uptake, Stimulation Index); format: cell-based
Excerpt: In the preparation of immune cells, specific pathogen free (SPF) BALB/c mice (Japan SLC, Shizuoka, Japan) were used for examination. Five-week old male mice were purchased, and allowed to freely consume distilled water and MR breeder (Nihon Nosan Kogyo (Nosan Co.)), which is experimental feed for mice and rats. Six- to ten-week-old mice were used for the experiments.
BALB/c mice were anesthetized with ether, and then sacrificed by exsanguination. Their spleens were excised and washed with phosphate buffer (PBS-4×S.P; ph 7.3) containing streptomycin and penicillin ([…] and 400 U/ml, respectively) to remove adipose tissue and such. The spleens were well dispersed in gauze, and spleen cells were filtered through the gauze into PBS to prepare a cell suspension. This cell suspension was centrifuged (at 300×g for five minutes at 4° C.). After discarding the supernatant, the cells were re-suspended in RPMI-1640 medium (SIGMA). The suspension was filtered through a steel mesh to remove aggregated cells, and centrifuged again (five minutes at 300×g and 4° C.). After discarding the supernatant, the cells were finally re-suspended in RPMI-1640 containing 2% fetal calf serum (FCS: Biocell Lab., Inc., CA, US). The viable cell count was determined using a trypan blue staining method, and this suspension was used as the spleen cell suspension in the experiments.
The cell suspension was transferred into each well of a 96-well microplate (SUMITOMO BAKELITE CO., LTD. Tokyo, Japan) to give 2×10^5 cells per well. The dextran and five types of phosphorylated dextrans (molecular weights of about 10,000, 40,000, 160,000, 510,000, and 2,000,000) prepared in Example 1 were respectively added to the wells to a concentration of 100 μg/ml. The cells were then cultured in RPMI-1640 (2% FCS) under 5% CO2 at 37° C. for 48 hours. As positive control samples, lipopolysaccharide (LPS: B-cell mitogen, E. coli 0111: B4, SIGMA) or concanavalin A (ConA: T-cell mitogen, SIGMA) were added at a final concentration of 20 μg/ml and 2 μg/ml, respectively. […] TdR incorporated into the lymphocytes was determined using a liquid scintillation counter (LS1801; Beckman Coulter, Tokyo).
The blastogenic activities on lymphocytes were evaluated by calculating Stimulation Indexes (S.I.) from the [^3H] […]
The blastogenic activities of phosphorylated dextrans on mouse spleen cells were measured as described in Example 5, except that phosphorylated dextrans were added at concentrations of 100 ng/ml, 1 μg/ml, 10 μg/ml, 100 μg/ml, or 200 μg/ml, the cells were incubated in RPMI-1640 medium (2% FCS) under 5% CO2 at 37° C. for 48 hours, and methyl-[^3H]-thymidine uptakes were measured. Blastogenic activity was estimated by calculating S.I. values from the radioactivity, compared with a control. […]

B cells = assay: Blastogenic activity on separated B cells (MACS CD45R adsorbed fraction); format: cell-based, mouse; details: B cell fraction, 48 hours, FIG. 6
Description: (§1) The mouse spleen cell suspension prepared in Example 4 was washed by centrifugation (at 2,500 rpm for five minutes at 4° C.) with a buffer for cell separation (0.5% BSA, 2 mM EDTA/-PBS). 3×10^7 cells were incubated at 4° C. for 15 minutes with 50 μl of a 20-times diluted biotinylated anti-mouse CD45R antibody (CLTAG Lab, Burlingame, Calif.). The cells were washed by centrifugation with the cell separation buffer (five minutes at 2,500 rpm and 4° C.), and the supernatant was then discarded. 30 μl of ten-fold diluted streptavidin microbeads (Miltenyi Biotec GmbH, Germany) was added to the cells, and the mixture was incubated at 4° C. for 15 minutes. The cells were washed by centrifugation with the cell separation buffer (five minutes at 2,500 rpm and 4° C.), re-suspended in the same buffer, and the suspension was then filtered through a nylon mesh to remove aggregated cells. […]
(§2) The cells thus obtained were collected by centrifugation and re-suspended in RPMI-1640 containing 10% FCS. The blastogenic activity was then determined using the method described above, except that the stimulation by phosphorylated NPS was carried out at a concentration of 100 μg/ml, and the cells were incubated for 48 hours.

T cells = assay: Blastogenic activity on separated T cells (MACS flow-through fraction); format: cell-based, mouse; details: T cell fraction, 48 hours, FIG. 6
Description: as §1, §2

Substance | blastogenic activity, S.I. (positive control) (mouse spleen cells; LPS 20 μg/ml, 48 hours, FIG. 3) | blastogenic activity, S.I. (positive control) (mouse spleen cells; LPS, FIG. 4 experiment) | activation of B cells (positive control) (B cells) | blastogenic activity, S.I. (positive control) (mouse spleen cells; ConA 2 μg/ml, 48 hours, FIG. 3) | blastogenic activity, S.I. (positive control) (mouse spleen cells; ConA, FIG. 4 experiment) | activation of T cells (positive control) (T cells)
Lipopolysaccharide | 89.3 | 79.8 | specifically activated | – | – | –
concanavalin A | – | – | – | 189.4 | 247.8 | specifically activated
